{"source": "patent US20250340519A1", "about": "“RADIOLABELLED COMPOUND” (OXFORD UNIVERSITY INNOVATION LIMITED, priority 2018, published 2025)", "tested_on": "Panc-1 xenograft", "assay": "Ex vivo biodistribution in Panc-1 xenograft bearing mice", "method": "Animals were housed in IVC cages in sex-matched groups up to 5 per cage, in an artificial day-night cycle facility, with ad libitum access to food and water. […] CaNT xenografts were generated by harvesting CaNT tumours from donor animals, and injecting a tumour homogenate subcutaneously in the flank of wild type CBA/Carl mice. Tumours were irradiated (10 Gy, 2 Gy/min) using a 300 kV X-ray device.\nBiodistribution studies, where selected tissues were harvested, were performed 1 h post injection. Some animals were also administered an excess of cold, unlabelled olaparib for evaluating the specificity of tumour uptake. EF5, a hypoxia-selective marker, was injected 2 h before culling of the animal. Digital autoradiography was performed on tumour sections. Image analysis was performed using PMOD.\nCells were harvested using trypsin, washed twice using PBS, and reconstituted in DMEM. […] Tumour volumes (V) were calculated after calliper measurement using the following equation: V=(a^2×b)/2, where a is the width of the tumour and b the length (small and large diameters, respectively). The individual relative tumour volume (RTV) was defined as Vt/Vo, where Vt is the volume at a given time and Vo at the start of treatment. Animals were entered in in vivo studies when their tumour was at least 200 mm^3.\nTwo hours prior to PET/CT imaging, animals were exposed to X-irradiation of the tumour (10 Gy or sham) (see schedule in FIG. 13). Radiation was delivered using a Gulmay 320 kV X-irradiator; 2.0 Gy/min. […] Naïve CBA/Carl mice, not bearing tumours, were not irradiated, nor was EF5 administered.\nDynamic PET/CT images were acquired using a VECTor ^4CT integrated PET/CT system. Mice were anaesthetised by 4% isoflurane gas (0.5 L/min O2) and placed on a custom-built imaging cradle in a prone position.\nAfter PET/CT image acquisition, animals were euthanized by cervical dislocation and selected organs, tissues and blood were removed. […] Counts per minute were converted into MBq using a calibration curve generated from known standards. Values were decay-corrected to the time of injection, and the percentage of the injected dose per gram (% ID/g) of each tissue was calculated.", "note": "Where “and” joins values, the source holds several entries; their conditions need not be identical. Equal values may be shown once.", "data": [{"smiles": "O=C(c1cc(Cc2n[nH]c(=O)c3ccccc23)ccc1[18F])N1CCN(C(=O)C2CC2)CC1", "note": "[[^18F]olaparib]", "values": [{"measurement": "tumour uptake (group mean)", "setting": "PANC-1 xenografts, 1 h after i.v. bolus, tracer alone", "value": "3.16±0.36", "unit": "% ID/g"}, {"measurement": "increase of tumour uptake after irradiation", "setting": "PANC-1 xenografts, 2 h after 10 Gy vs non-irradiated", "value": 70, "unit": "%"}, {"measurement": "tumour uptake (group mean)", "setting": "PANC-1 xenografts, 2 h after irradiation (10 Gy)", "value": "5.35±1.16", "unit": "% ID/g"}, {"measurement": "tumour uptake (group mean)", "setting": "PANC-1 xenografts, co-injection of excess cold olaparib", "value": "1.20±0.17", "unit": "% ID/g"}, {"measurement": "Ex vivo biodistribution Small intestine", "setting": "Panc-1 xenograft mice, + IR (10 Gy), 1 h p.i., individual animals", "value": "65.1 % ID/g and 113 % ID/g and 95.2 % ID/g"}]}]}
